From PubChem BioAssay (NCI)
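Assay format: 96-well plates, 48-hour exposure. The concentration for full growth arrest is given as TGI.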

How the values were obtained:
Experiment in all cases: DTP human tumour cell line panel, 48 h
[1] = test system: UACC-62 melanoma
[2] = test system: NCI-H522 lung
[3] = test system: A498 renal
[4] = test system: SNB-75 CNS
[5] = test system: NCI/ADR-RES ovarian
[6] = test system: MDA-MB-435
[7] = test system: UACC-257 melanoma
[8] = test system: KM12 colon
[9] = test system: NCI-H226 lung
[10] = test system: MDA-N

| SMILES | TGI [1] [µM] | TGI [2] [µM] | TGI [3] [µM] | TGI [4] [µM] | TGI [5] [µM] | TGI [6] [µM] | TGI [7] [µM] | TGI [8] [µM] | TGI [9] [µM] | TGI [10] [µM] |
| --- | --- | --- | --- | --- | --- | --- | --- | --- | --- | --- |
| O=C(Nc1ccc2ccccc2c1)c1cc2cc(CCl)ccc2oc1=O | > 100 | > 100 | > 100 | 38.5 | > 100 | > 100 | > 100 | > 100 | > 100 | > 100 |
| COc1ccc(CNc2nc3ccccc3nc2C(=O)O)cc1 | > 100 | > 100 | > 100 | > 100 | > 100 | > 100 | > 100 | > 100 | > 100 | > 100 |
| CSCCCNC(=O)[C@H](CSC)NC(=O)c1csc(CCNC(=O)[C@@H](NSc2ccccc2[N+](=O)[O-])C(C)O)n1 (some centres undefined) | > 100 | > 100 | > 100 | > 100 | > 100 | > 100 | > 100 | > 100 | > 100 | > 100 |
| Cc1ccc(NC(=O)CC(=O)n2nc(C)c(N=Nc3cccc(C)c3)c2C)cc1 | > 100 | > 100 | > 100 | 62.3 | > 100 | > 100 | > 100 | > 100 | > 100 | > 100 |
| C[C@H](CCC(=O)NCC(=O)O)[C@H]1CC[C@H]2[C@@H]3[C@H](O)C[C@@H]4C[C@H](O)CC[C@]4(C)[C@H]3CC[C@]12C | > 100 | > 100 | > 100 | > 100 | > 100 | > 100 | > 100 | > 100 | > 100 | > 100 |
| Cc1ccc2c(c1C)C(=O)/C(=C/c1cccc(C)c1C(=O)O)C2 | > 100 | > 100 | 99.2 | > 100 | > 100 | > 100 | > 100 | > 100 | > 100 | > 100 |
| CC(=O)c1sc2[n+](c1C)C(=O)/C(=C\c1ccccc1Cl)S2 | 25.8 | 39 | 74.3 | 65.9 | 61.6 | 28.9 | 42.3 | 35.2 | 30.9 | 44 |
| CN(C)CCCNC(=O)c1cn2c(ccc3sc4ccccc4c(=O)c32)n1 | 35.9 | 32.4 | 30.7 | 30.5 | 8.37 | 30.4 | 30.3 | 37.6 | 36.1 | 9.88 |
| COc1cc2c3c(cc(Cl)nc3c1OC)C(O)(CC(=O)c1ccccc1)C(=O)N2 (centres undefined) | 15.9 | 8.93 | 32.3 | 28.6 | 63.8 | 3.53 | 21.4 | 31.3 | 41.3 | 3.65 |
| N#Cc1nc(/C=C/c2cccnc2)oc1N | > 100 | > 100 | > 100 | > 100 | > 100 | > 100 | > 100 | > 100 | > 100 | > 100 |
| O=C1c2cc([N+](=O)[O-])sc2C(=O)c2c([N+](=O)[O-])csc21 | 1.19 | 1.68 | 3.34 | 3.18 | 4.16 | 0.311 | 1.31 | 2.6 | 3.8 | 0.363 |
| O=C1C(c2c(O)[nH]c3ccc(S(=O)(=O)NCCO)cc23)=Nc2ccccc21 | > 100 | 4.73 | 9.07 | 7.43 | > 100 | > 100 | > 100 | 2.2 | > 100 | > 100 |
| CC/C(=C\c1ccc(OC)cc1)c1ccc(OC)cc1 | > 100 | > 100 | > 100 | > 100 | > 100 | > 100 | > 100 | > 100 | > 100 | > 100 |
| CC(C)(C)C1=C(Br)C(OC(=O)C(F)(F)F)(C(C)(C)C)OP1(=O)c1ccccc1 (centres undefined) | 95.4 | > 100 | > 100 | > 100 | > 100 | > 100 | > 100 | > 100 | > 100 | > 100 |
| CN(C)CCNC(=O)c1c(O)ccc2c1c1c(n2CCc2ccccc2)C(=O)c2ccccc2C1=O | 5.56 | 23 | 31.9 | 28.1 | 29.4 | 5.08 | 10.4 | 15.9 | 35.2 | 5.34 |
| Clc1cc2nnn(C3CCCO3)c2cc1Cl (centres undefined) | > 100 | > 100 | > 100 | > 100 | > 100 | > 100 | > 100 | – | > 100 | > 100 |
| O=P(O)(O)CN1CCNCCN(CP(=O)(O)O)CC1 | > 100 | > 100 | > 100 | > 100 | > 44.9 | > 100 | > 100 | > 100 | > 86.8 | > 72.9 |
| CCOC(=O)C1=C(C)N(Cc2ccccc2)C2(O)C=CC(=O)C3=C(O)c4ccccc4C(=O)C312 (centres undefined) | 31.1 | 27.2 | 60.3 | 55.4 | 0.708 | 27.5 | 32.6 | 28.5 | 54.4 | 22.3 |
| NS(=O)(=O)c1ccc(N=Nc2ccc(O)c(C(=O)O)c2)cc1 | > 100 | > 100 | > 100 | > 100 | > 100 | > 100 | > 100 | > 100 | > 100 | > 100 |
